Data as given in US8536175B2, “Quinoxaline carboxamide derivatives as protein tyrosine kinase inhibitors” (Novartis AG, priority 2008, dated 2013).
Where two headings read alike, the source gives them in different places.

Biological target: FGFR3 kinase (Homo sapiens (Human), UniProt P22607, K650E)
Test: FGFR3 kinase inhibition (protein kinase activity assays)
Type: biochemical
Experimental: generic assay set-up: Enzyme activities were measured by mixing 10 μL of a 3-fold concentrated compound solution or control with 10 μL of the corresponding substrate mixture (peptidic substrate, ATP and [γ^33P]ATP). The reactions were initiated by addition of 10 μL of a 3-fold concentrated solution of the respective enzyme in assay buffer. […] Filter binding (FB) method: FB assays were carried out in 96-well plates at room temperature for 10 min in a finial volume of 30 μL including the components as indicated in section above. […] After spotting, vacuum was connected and each well rinsed with 200 μL 0.5% H3PO4. Free membranes were removed and washed 4 times on a shaker with 1% H3PO4 and once with ethanol. Membranes were dried and overlaid with addition of 10 μL/well of a scintillation fluid. The plates were eventually sealed and counted in a microplate scintillation counter. IC50 values were calculated by linear regression analysis of the percentage inhibition of the compound.
generic assay set-up: The assay has been run at room temperature on a liquid handling robot. […] After an incubation time of 45 min in the dark, the plates were transferred into a fluorescence reader for counting.
Compounds of formula (I) are assayed to measure their capacity to inhibit FGFR3 kinase as described above.

[1] = read-out: rating (FGFR3 kinase IC50)
[2] = average of 2 independent measurements, * single value, read-out: FGFR3 IC50

Sequence of FGFR3 kinase (P22607 23-806 K650E): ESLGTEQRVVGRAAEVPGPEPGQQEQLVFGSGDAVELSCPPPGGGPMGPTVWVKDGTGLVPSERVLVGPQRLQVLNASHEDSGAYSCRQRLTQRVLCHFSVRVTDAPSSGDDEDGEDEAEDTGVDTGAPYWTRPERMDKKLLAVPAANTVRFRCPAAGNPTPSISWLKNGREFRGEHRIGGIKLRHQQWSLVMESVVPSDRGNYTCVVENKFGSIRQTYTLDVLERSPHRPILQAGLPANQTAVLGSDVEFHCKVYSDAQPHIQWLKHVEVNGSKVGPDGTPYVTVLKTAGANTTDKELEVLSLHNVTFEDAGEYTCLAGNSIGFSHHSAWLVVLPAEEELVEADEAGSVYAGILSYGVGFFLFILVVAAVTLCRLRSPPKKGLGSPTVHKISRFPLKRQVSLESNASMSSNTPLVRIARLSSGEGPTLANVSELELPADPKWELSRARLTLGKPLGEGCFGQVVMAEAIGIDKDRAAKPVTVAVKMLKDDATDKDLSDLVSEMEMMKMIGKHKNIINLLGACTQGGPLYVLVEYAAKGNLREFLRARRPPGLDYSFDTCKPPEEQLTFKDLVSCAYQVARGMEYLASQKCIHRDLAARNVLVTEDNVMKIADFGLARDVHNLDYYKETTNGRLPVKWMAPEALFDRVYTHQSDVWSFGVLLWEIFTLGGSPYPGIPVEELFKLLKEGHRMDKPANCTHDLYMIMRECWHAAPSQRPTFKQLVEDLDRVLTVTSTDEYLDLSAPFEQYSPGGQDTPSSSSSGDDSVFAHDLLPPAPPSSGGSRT

| IC50 [1] [nM] | IC50 [2] [nM] | Structure (SMILES) |
| --- | --- | --- |
| < 100 | – | CCN1CCN(c2ccc(NC(=O)c3ccc(-c4c(Cl)c(OC)cc(OC)c4Cl)c4nccnc34)cc2)CC1 [Example 1, 8-(2,6-Dichloro-3,5-dimethoxy-phenyl)-quinoxaline-5-carboxylic acid [4-(4-ethyl-piperazin-1-yl)-phenyl]-amide] |
| – | > 10000 | COc1cc(OC)c(Cl)c(-c2ccc(C(=O)Nc3ccc(C(N)=O)cc3)c3nccnc23)c1Cl [Example 3, 8-(2,6-Dichloro-3,5-dimethoxy-phenyl)-quinoxaline-5-carboxylic acid (4-carbamoyl-phenyl)-amide] |
| 500 to 50000 | – | COc1cc(OC)c(Cl)c(-c2ccc(C(=O)Nc3ccc(O)cc3)c3nccnc23)c1Cl [Example 7, 8-(2,6-Dichloro-3,5-dimethoxy-phenyl)-quinoxaline-5-carboxylic acid (4-hydroxyphenyl)-amide] |
| 500 to 50000 | – | COc1ccc(Cl)c(-c2ccc(C(=O)Nc3ccc(OCCN(C)C)cc3)c3nccnc23)c1 [Example 65, 8-(2-Chloro-5-methoxy-phenyl)-quinoxaline-5-carboxylic acid [4-(2-dimethylamino-ethoxy)-phenyl]-amide] |
| 500 to 50000 | – | COc1cc(OC)c(Cl)c(-c2ccc(C(=O)Nc3cccnc3)c3ncc(N(C)CCN(C)C)nc23)c1Cl [Example 87, 8-(2,6-Dichloro-3,5-dimethoxy-phenyl)-2-[(2-dimethylamino-ethyl)-methylamino]-quinoxaline-5-carboxylic acid pyridin-3-ylamide] |
| < 100 | – | COc1cc(OC)c(F)c(-c2ccc(C(=O)Nc3ccc(CN4CCN(C)CC4)nc3)c3nccnc23)c1F [Example 89, 8-(2,6-Difluoro-3,5-dimethoxy-phenyl)-quinoxaline-5-carboxylic acid [6-(4-methyl-piperazin-1-ylmethyl)-pyridin-3-yl]-amide] |
| 100 to 500 | – | COc1cc(OC)c(F)c(-c2ccc(C(=O)Nc3cccnc3)c3nccnc23)c1F [Example 90, 8-(2,6-Difluoro-3,5-dimethoxy-phenyl)-quinoxaline-5-carboxylic acid pyridin-3-ylamide] |
| – | > 10000 | CCN1CCN(Cc2ccc(NC(=O)c3ccc(-c4cc(C)c[n+]([O-])c4C)c4nccnc34)nc2)CC1 [Example 99, 8-(2,5-Dimethyl-1-oxy-pyridin-3-yl)-quinoxaline-5-carboxylic acid [5-(4-ethyl-piperazin-1-ylmethyl)-pyridin-2-yl]-amide] |
| 500 to 50000 | – | COc1cc(OC)c(Cl)c(-c2ccc(C(=O)Nc3ccn(CCN(C)C)c3)c3nccnc23)c1Cl [Example 121, 8-(2,6-Dichloro-3,5-dimethoxy-phenyl)-quinoxaline-5-carboxylic acid [1-(2-dimethylamino-ethyl)-1H-pyrrol-3-yl]-amide] |
| < 100 | – | COc1cc(OC)c(F)c(-c2ccc(C(=O)Nc3ccc(CN4CCS(=O)(=O)CC4)cn3)c3nccnc23)c1F [Example 140, 8-(2,6-Difluoro-3,5-dimethoxy-phenyl)-quinoxaline-5-carboxylic acid [5-(1,1-dioxo-thiomorpholin-4-ylmethyl)-pyridin-2-yl]-amide] |
| < 100 | – | CCN1CCN(c2ccc(NC(=O)c3ccc(-c4c(Cl)c(OC)cc(OC)c4Cl)c4cccnc34)cc2)CC1 [Example 159, 5-(2,6-Dichloro-3,5-dimethoxy-phenyl)-quinoline-8-carboxylic acid [4-(4-ethyl-piperazin-1-yl)-phenyl]-amide] |
| < 100 | – | COc1cc(OC)c(Cl)c(-c2ccc(C(=O)Nc3ncc[nH]3)c3ncccc23)c1Cl [Example 161, 5-(2,6-Dichloro-3,5-dimethoxy-phenyl)-quinoline-8-carboxylic acid (1H-imidazol-2-yl)-amide] |
| 100 to 500 | – | CCN1CCN(Cc2ccc(NC(=O)c3ccc(-c4c(Cl)c(OC)cc(OC)c4Cl)c4cccnc34)nc2)CC1 [Example 165, 5-(2,6-Dichloro-3,5-dimethoxy-phenyl)-quinoline-8-carboxylic acid [5-(4-ethyl-piperazin-1-ylmethyl)-pyridin-2-yl]-amide] |

Continued, compound first:

| Structure (SMILES) | IC50 [1] [nM] | IC50 [2] [nM] |
| --- | --- | --- |
| COc1cc(OC)c(Cl)c(-c2ccc(C(=O)Nc3ccc(OCCN(C)C)cc3)c3nccnc23)c1Cl [Example 5, 8-(2,6-Dichloro-3,5-dimethoxy-phenyl)-quinoxaline-5-carboxylic acid [4-(2-dimethylamino-ethoxy)-phenyl]-amide] | < 100 | – |
| COc1cc(OC)c(Cl)c(-c2ccc(C(=O)Nc3nnc[nH]3)c3nccnc23)c1Cl [Example 17, 8-(2,6-Dichloro-3,5-dimethoxy-phenyl)-quinoxaline-5-carboxylic acid (4H-[1,2,4]triazol-3-yl)-amide] | – | > 10000 |
| COc1cc(OC)c(Cl)c(-c2ccc(C(=O)Nc3ccc(N4CCN(C(C)C)CC4)nc3)c3nccnc23)c1Cl [Example 33, 8-(2,6-Dichloro-3,5-dimethoxy-phenyl)-quinoxaline-5-carboxylic acid [6-(4-isopropyl-piperazin-1-yl)-pyridin-3-yl]-amide] | < 100 | – |
| COc1cc(OC)c(Cl)c(-c2ccc(C(=O)Nc3ccc(N(C)C4CCN(C)CC4)nc3)c3nccnc23)c1Cl [Example 37, 8-(2,6-Dichloro-3,5-dimethoxy-phenyl)-quinoxaline-5-carboxylic acid {6-[methyl-(1-methyl-piperidin-4-yl)-amino]-pyridin-3-yl}-amide] | < 100 | – |
| Cc1cscc1-c1ccc(C(=O)Nc2nc(CN3CCN(C)CC3)c[nH]2)c2nccnc12 [Example 69, 8-(4-Methyl-thiophen-3-yl)-quinoxaline-5-carboxylic acid [4-(4-methyl-piperazin-1-ylmethyl)-1H-imidazol-2-yl]amide] | – | > 10000 |
| CCN1CCN(c2ccc(NC(=O)c3ccc(-c4c(C)cccc4C)c4nccnc34)cc2)CC1 [Example 72, 8-(2,6-Dimethyl-phenyl)-quinoxaline-5-carboxylic acid [4-(4-ethyl-piperazin-1-yl)-phenyl]-amide] | 500 to 50000 | – |
| Cc1cccc(C)c1-c1ccc(C(=O)Nc2nc(CN3CCN(C)CC3)c[nH]2)c2nccnc12 [Example 77, 8-(2,6-Dimethyl-phenyl)-quinoxaline-5-carboxylic acid [4-(4-methyl-piperazin-1-ylmethyl)-1H-imidazol-2-yl]-amide] | – | > 10000 |
| COc1cc(OC)c(Cl)c(-c2ccc(C(=O)Nc3ccc(CN(C)CCN(C)C)cn3)c3nccnc23)c1Cl [Example 81, 8-(2,6-Dichloro-3,5-dimethoxy-phenyl)-quinoxaline-5-carboxylic acid (5-{[(2-dimethylamino-ethyl)-methyl-amino]-methyl}-pyridin-2-yl)-amide] | < 100 | – |
| CCN1CCN(Cc2ccc(NC(=O)c3ccc(-c4c(F)c(OC)cc(OC)c4F)c4nccnc34)cn2)CC1 [Example 88, 8-(2,6-Difluoro-3,5-dimethoxy-phenyl)-quinoxaline-5-carboxylic acid [6-(4-ethyl-piperazin-1-ylmethyl)-pyridin-3-yl]-amide] | < 100 | – |
| COc1cc(OC)c(Cl)c(-c2ccc(C(=O)Nc3ccc(CN4CCS(=O)(=O)CC4)cn3)c3nccnc23)c1Cl [Example 104, 8-(2,6-Dichloro-3,5-dimethoxy-phenyl)-quinoxaline-5-carboxylic acid [5-(1,1-dioxothiomorpholin-4-ylmethyl)-pyridin-2-yl]-amide] | 100 to 500 | – |
| CCN1CCN(Cc2ccc(NC(=O)c3ccc(-c4cc(OC)cc(OC)c4)c4nccnc34)nc2)CC1 [Example 115, 8-(3,5-Dimethoxy-phenyl)-quinoxaline-5-carboxylic acid [5-(4-ethyl-piperazin-1-ylmethyl)-pyridin-2-yl]-amide] | 500 to 50000 | – |
| COc1cc(OC)cc(-c2ccc(C(=O)Nc3ccc(CN4CCNCC4)cn3)c3nccnc23)c1 [Example 117] | 500 to 50000 | – |
| COc1cc(OC)c(F)c(-c2ccc(C(=O)Nc3nc(CN4CCN(C)CC4)c[nH]3)c3nccnc23)c1F [Example 141, 8-(2,6-Difluoro-3,5-dimethoxy-phenyl)-quinoxaline-5-carboxylic acid [4-(4-methyl-piperazin-1-ylmethyl)-1H-imidazol-2-yl]-amide] | < 100 | – |
| COc1cc(OC)c(Cl)c(-c2ccc(C(=O)Nc3nccn3Cc3ccccc3)c3ncccc23)c1Cl [Example 160, 5-(2,6-Dichloro-3,5-dimethoxy-phenyl)-quinoline-8-carboxylic acid (1-benzyl-1H-imidazol-2-yl)-amide] | 500 to 50000 | – |
| COc1cc(OC)c(Cl)c(-c2ccc(C(=O)Nc3cnc[nH]3)c3ncccc23)c1Cl [Example 162, 5-(2,6-Dichloro-3,5-dimethoxy-phenyl)-quinoline-8-carboxylic acid (3H-imidazol-4-yl)-amide] | 100 to 500 | – |
| COc1cc(OC)c(Cl)c(-c2ccc(C(=O)Nc3nnc[nH]3)c3nccnc23)c1Cl [Example 163, 8-(2,6-Dichloro-3,5-dimethoxy-phenyl)-quinoxaline-5-carboxylic acid (4H-[1,2,4]triazol-3-yl)-amide] | 500 to 50000 | – |
| COc1cc(OC)c(Cl)c(-c2ccc(C(=O)Nc3ccc(CN4CCN(C)CC4)cn3)c3ncccc23)c1Cl [Example 164, 5-(2,6-Dichloro-3,5-dimethoxy-phenyl)-quinoline-8-carboxylic acid [5-(4-methyl-piperazin-1-ylmethyl)-pyridin-2-yl]amide] | < 100 | – |
| COc1cc(OC)c(Cl)c(-c2ccc(C(=O)Nc3ccc(CN4CCN(C)CC4)nc3)c3ncccc23)c1Cl [Example 168, 5-(2,6-Dichloro-3,5-dimethoxy-phenyl)-quinoline-8-carboxylic acid [6-(4-methyl-piperazin-1-ylmethyl)-pyridin-3-yl]amide] | 100 to 500 | – |
